From ChEMBL document CHEMBL3507680, “University of Dundee, Gates Library screen for HepG2 cell viability”

Test: Human HepG2 cell viability assay in 384 well format
Format: toxicity, cell-based
Design: dose 125 nL, time 70.5 hour; concentration not given beside the values
Details: HepG2 cells, read-out: Inhibition

| Structure (SMILES) | cytotoxicity at 70.5 h |
| --- | --- |
| Cc1cc(CC(C)Nc2nc(C3CCCC3)nc3c2cnn3C)[nH]n1 (stereo not given) | -13% |
| Cc1cc(CNC(=O)C(c2ccc(F)cc2)N(C)C)n[nH]1 (stereo not given) | 7.79% |
| CN(C)c1ncc(CNC2CC(=O)N(CCc3cccc(Cl)c3)C2)s1 (stereo not given) | -4.44% |
| Cc1nc(-c2ccncc2)ncc1C(C)NC(=O)Cn1ccccc1=O (stereo not given) | 9.51% |
| Cc1nn(C)c2nc(N3CCNC(=O)C3C(C)C)sc12 (stereo not given) | 10.4% |
| CNC(=O)c1ccc(-n2c(COCC(=O)O)nc3c(C)cccc32)o1 | -1.45% |
| COc1cccc(C2CCCN2C(=O)c2cc3c(nc2OC)CCC3)c1 (stereo not given) | -2.74% |
| CCOC(=O)N1C[C@H]2CC[C@@H]1CN(Cc1ccccc1)C2 | -6.47% |
| CC(=O)N[C@@H]1CN(C2CCN(c3ccccc3F)CC2)C[C@H]1C(C)C | -10.5% |
| CC(C)(C)n1cc(C2=CCN(CCN3CCCCCC3)CC2)cn1 | -4.69% |
| C[C@@H]1CN(Cc2cc3ccccc3n2C)CC[C@@]1(O)C1CC1 | -3.91% |
| O=C(c1ccc2c(c1)OCO2)N1C[C@@H](CN2CCCCC2)[C@@H](CO)C1 | -0.201% |
| CN1CCN([C@@H]2CCN(Cc3ccc4cc(F)ccc4n3)C[C@H]2O)CC1 | -1.96% |
| CCCn1ccnc1-c1nccn1CCN(C)C | -2.58% |
| O=C(O)[C@@H]1CN(C(=O)c2ccc(Cl)cc2)C[C@H]1c1cccc(F)c1 | -12.9% |
| CN(C)Cc1nnc(C2CCCN(c3nccc4ccccc34)C2)n1C (stereo not given) | -12.2% |
| O=C1CC[C@H]2CN(c3ncc(F)cn3)CC[C@H]2N1CCc1ccccn1 | -5.32% |
| Cc1c(CN2CCC(C(=O)O)(n3cccn3)CC2)oc2ccccc12 | -2.29% |
| Cc1cc(C)nc(N(C)CCN(C)C2CCCC2)n1 | -6.11% |
| CC(C)Cc1cc(CNc2nc(-c3cccnc3)nc3c2CNC3)no1 | -15.7% |
| Cc1nc(O)cc(C2CCCN(C(=O)c3cccc(N(C)C)c3)C2)n1 (stereo not given) | 5.24% |
| CCOc1ccc(CN(CCOC)c2nc(C)nc3oc(C)nc23)cc1 | -12.6% |
| CCc1cn[nH]c1C1CCCN(C(=O)c2cc(C(C)C)on2)C1 (stereo not given) | -2.01% |
| CN(C)CCN1CC(C(=O)NCc2cccc(-n3cccn3)c2)CC1=O (stereo not given) | -0.603% |
| COc1ccccc1CN1C(=O)O[C@@H]2CN(Cc3cccc(C)n3)C[C@@H]21 | 20.9% |
| Cc1ccncc1-n1cc(CCO)cn1 | -5.86% |
| O=C1CCCN1c1cccc(N2CCC(NCCc3cscn3)CC2)c1 | -4.03% |
| CN(C)C(=O)c1ccc2c(c1)N(C)C(CC(=O)NCCOCCO)CO2 (stereo not given) | 12.2% |

| Structure (SMILES) | cytotoxicity at 70.5 h |
| --- | --- |
| O=C(c1cccc(C2CCNC2)c1)N1CCC(c2ccncc2)CC1 (stereo not given) | -18.3% |
| Cc1ccc(C(=O)N2CC(Oc3ccccc3C)C2)s1 | -12.1% |
| CN1CCN(C(=O)N2C[C@H]3CC[C@@H]2CN(Cc2ccccc2)C3)CC1 | -18.1% |
| COc1ccc(CN(C)C2CSCCSC2)c2cccnc12 | -6.62% |
| Cc1cc(C)cc(-c2cc(C3CCOC3)c(C#N)c(N)n2)c1 (stereo not given) | 12.8% |
| Cn1ccnc1CN1C[C@@H](CN2CCCCCC2)[C@@H](CO)C1 | 1.19% |
| CCc1[nH]c2c(CNC(=O)C3CCC(=O)NC3)cc(C)cc2c1C (stereo not given) | -9.39% |
| CN(CCCc1ccccc1)C(=O)c1ccccc1NCC(=O)O | -13.3% |
| Cc1cc(C(=O)N2CCc3c(ncnc3N3CCOCC3)C2)[nH]n1 | -1.64% |
| Cc1nc(C)c(C)c(N2CCC(O)(c3ccc(F)cc3)CC2)n1 | -6.02% |
| CCN(CC)C(=O)c1ccc(Cl)c(NC(=O)c2cc(C(C)C)on2)c1 | -12.4% |
| COCCC1(C(=O)O)CCCN(Cc2cc3c(cc2C)OCO3)C1 (stereo not given) | -2.46% |
| CSc1ccc2c(C)cc(N[C@@H](C)CO)nc2c1 | 23.3% |
| CC(Cn1cncn1)NCCN1CCc2ccccc2C1 (stereo not given) | -6.48% |
| CC(C)NS(=O)(=O)c1cc(C(=O)O)cc(-c2ccc3c(c2)OCO3)c1 | -9.21% |
| Cc1nc(O)cc(CCNC(=O)c2ccc(CN3CCCCC3)cc2)n1 | 0.488% |
| Nc1cnc(-c2cccc3ccnn23)cn1 | 14.2% |
| Cc1ccc(OC2(C(=O)NC(C)c3csc(C)n3)CCNCC2)cc1 (stereo not given) | 22.5% |
| C=C(C)COc1ccc(C(=O)NCC2CC(CC)=NO2)cc1 (stereo not given) | -15.2% |
| CN(Cc1ccsc1)Cc1nc(-c2cnccn2)no1 | -6.12% |
| CN(C)C(C(=O)NCCS(=O)(=O)N(C)C)c1cccc(F)c1 (stereo not given) | 8.21% |
| O=C(Nc1nncs1)N1CCC(CCO)CC1 | -7.1% |
| Cc1ccc(-n2cc(CN3CCOCC(CN(C)C)C3)cn2)cc1C (stereo not given) | 37.2% |
| Cc1nc(CCN)cc(N2CCCN(C(=O)c3ccco3)CC2)n1 | -4.43% |
| CC(C)Cc1nc(CS(C)(=O)=O)n(-c2ccccn2)n1 | -7.54% |
| Cc1ccnn1CC(=O)N(C)Cc1cnn(-c2ccccc2)c1 | -1.98% |
| Nc1ncc(CN2C[C@H](C3CC3)[C@@H](N)C2)cn1 | -5.66% |
